According to patent publication US7396837B2, “Antitumoral analogs of lamellarins” (Pharma Mar, S.A.U., priority 2002, dated 2008):
Like-named read-outs stand apart in the source and are kept apart here.

Experiments:
Assay type in all cases: cell-based
HeLa = test: SRB colorimetric cell growth inhibition assay, HeLa; conditions: HELA; for GI50: GI=growth inhibition, read-out: GI50 HELA; for CC50: cell killing (cytotoxic effect), read-out: LC50 HELA; for TGI HELA: total growth inhibition (cytostatic effect)
Summary of the method: (§1)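 Cells are kept under uninterrupted exposure to compound. Staining with sulforhodamine B then measures cell growth and viability. Triplicate data give mean ± SD, from which growth inhibition, total growth inhibition and lethal concentration values follow.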

IGROV-ET = test: SRB colorimetric cell growth inhibition assay, IGROV-ET (ET-743 resistant); conditions: IGROV-ET; for GI50: GI=growth inhibition, read-out: GI50 IGROV-ET; for CC50: cell killing (cytotoxic effect), read-out: LC50 IGROV-ET; for TGI IGROV-ET: total growth inhibition (cytostatic effect)
Summary of the method: as §1

IGROV = test: SRB colorimetric cell growth inhibition assay, IGROV; conditions: IGROV; for GI50: GI=growth inhibition, read-out: GI50 IGROV; for CC50: cell killing (cytotoxic effect), read-out: LC50 IGROV; for TGI IGROV: total growth inhibition (cytostatic effect)
Summary of the method: as §1

HeLa-APL = test: SRB colorimetric cell growth inhibition assay, HeLa-APL (aplidine resistant); conditions: HELA-APL; for GI50: GI=growth inhibition, read-out: GI50 HELA-APL; for CC50: cell killing (cytotoxic effect), read-out: LC50 HELA-APL; for TGI HELA-APL: total growth inhibition (cytostatic effect)
Summary of the method: as §1

A-549 = test: SRB colorimetric cell growth inhibition assay, A-549; conditions: A-549; for GI50: GI=growth inhibition, read-out: GI50 A-549; for CC50: cell killing (cytotoxic effect), read-out: LC50 A-549; for TGI A-549: total growth inhibition (cytostatic effect)
Summary of the method: as §1

SK-MEL-28 = test: SRB colorimetric cell growth inhibition assay, SK-MEL-28; conditions: MEL-28; for GI50: GI=growth inhibition, read-out: GI50 MEL-28; for CC50: cell killing (cytotoxic effect), read-out: LC50 MEL-28; for TGI MEL-28: total growth inhibition (cytostatic effect)
Summary of the method: as §1

LNCaP = test: SRB colorimetric cell growth inhibition assay, LNCaP; conditions: LN-caP; for GI50: GI=growth inhibition, read-out: GI50 LN-caP; for CC50: cell killing (cytotoxic effect), read-out: LC50 LN-caP; for TGI LN-caP: total growth inhibition (cytostatic effect)
Summary of the method: as §1

PANC-1 = test: SRB colorimetric cell growth inhibition assay, PANC-1; conditions: PANC-1; for GI50: GI=growth inhibition, read-out: GI50 PANC-1; for CC50: cell killing (cytotoxic effect), read-out: LC50 PANC-1; for TGI PANC-1: total growth inhibition (cytostatic effect)
Summary of the method: as §1

K-562 = test: SRB colorimetric cell growth inhibition assay, K-562; conditions: for GI50: GI=growth inhibition, read-out: GI50 K-562; for CC50: cell killing (cytotoxic effect), read-out: LC50 K-562; for TGI K-562: total growth inhibition (cytostatic effect)
Summary of the method: as §1

LoVo = test: SRB colorimetric cell growth inhibition assay, LoVo; conditions: LOVO; for GI50: GI=growth inhibition, read-out: GI50 LOVO; for CC50: cell killing (cytotoxic effect), read-out: LC50 LOVO; for TGI LOVO: total growth inhibition (cytostatic effect)
Summary of the method: as §1

SK-BR-3 = test: SRB colorimetric cell growth inhibition assay, SK-BR-3; conditions: SK-BR-3; for GI50: GI=growth inhibition, read-out: GI50 SK-BR-3; for CC50: cell killing (cytotoxic effect), read-out: LC50 SK-BR-3; for TGI SK-BR-3: total growth inhibition (cytostatic effect)
Summary of the method: as §1

DU-145 = test: SRB colorimetric cell growth inhibition assay, DU-145; conditions: DU-145; for GI50: GI=growth inhibition, read-out: GI50 DU-145; for CC50: cell killing (cytotoxic effect), read-out: LC50 DU-145; for TGI DU-145: total growth inhibition (cytostatic effect)
Summary of the method: as §1

HT-29 = test: SRB colorimetric cell growth inhibition assay, HT-29; conditions: HT-29; for GI50: GI=growth inhibition, read-out: GI50 HT-29; for CC50: cell killing (cytotoxic effect), read-out: LC50 HT-29; for TGI HT-29: total growth inhibition (cytostatic effect)
Summary of the method: as §1

LoVo-Dox = test: SRB colorimetric cell growth inhibition assay, LoVo-Dox (MDR); conditions: LOVO-DOX; for GI50: GI=growth inhibition, read-out: GI50 LOVO-DOX; for CC50: cell killing (cytotoxic effect), read-out: LC50 LOVO-DOX; for TGI LOVO-DOX: total growth inhibition (cytostatic effect)
Summary of the method: as §1

## COc1cc(-c2c3c4cc(OC)c(OC(=O)[C@H](C)N)cc4oc(=O)c3n3ccc4c(OC(=O)[C@H](C)N)c(OC)c(OC)cc4c23)ccc1OC(=O)[C@H](C)N [Compound 16]
HeLa
  GI50: 193 nM
  CC50: 703 nM
  TGI HELA: 3.68E−07 Molar
IGROV-ET
  GI50: 278 nM
  CC50: 897 nM
  TGI IGROV-ET: 5.00E−07 Molar
IGROV
  GI50: 226 nM
  CC50: 1590 nM
  TGI IGROV: 4.78E−07 Molar
HeLa-APL
  GI50: 229 nM
  CC50: 2380 nM
  TGI HELA-APL: 5.20E−07 Molar
A-549
  GI50: 178 nM
  CC50: 3050 nM
  TGI A-549: 5.02E−07 Molar
SK-MEL-28
  GI50: 138 nM
  CC50: 669 nM
  TGI MEL-28: 3.04E−07 Molar
LNCaP
  GI50: 131 nM
  CC50: 534 nM
  TGI LN-caP: 2.65E−07 Molar
PANC-1
  GI50: 241 nM
  CC50: 3340 nM
  TGI PANC-1: 7.56E−07 Molar
K-562; Homo sapiens, K562, K-562
  GI50: 183 nM
K-562; K-562
  CC50: 2230 nM
  TGI K-562: 4.45E−07 Molar
LoVo
  GI50: 196 nM
  CC50: 612 nM
  TGI LOVO: 3.47E−07 Molar
SK-BR-3
  GI50: 207 nM
  CC50: 816 nM
  TGI SK-BR-3: 4.11E−07 Molar
DU-145
  GI50: 52.7 nM
  CC50: 2800 nM
  TGI DU-145: 2.98E−07 Molar
HT-29
  GI50: 411 nM
  CC50: 5000 nM
  TGI HT-29: 9.31E−07 Molar
LoVo-Dox; Homo sapiens
  GI50: 420 nM
LoVo-Dox
  CC50: 4420 nM
  TGI LOVO-DOX: 1.03E−06 Molar

## COc1cc2c(cc1O)oc(=O)c1c2c(-c2ccc(OC(=O)[C@H](C)N)c(OC)c2)c2c3cc(OC)c(O)cc3ccn21.Cl [Compound 238]
HeLa
  GI50: 52.2 nM
  CC50: 1240 nM
  TGI HELA: 1.31E−07 Molar
IGROV-ET
  GI50: 41.3 nM
  CC50: 16500 nM
  TGI IGROV-ET: 1.44E−07 Molar
IGROV
  GI50: 79.9 nM
  CC50: 1260 nM
  TGI IGROV: 2.82E−07 Molar
HeLa-APL
  GI50: 157 nM
  CC50: 1760 nM
  TGI HELA-APL: 5.16E−07 Molar
A-549
  GI50: 45.8 nM
  CC50: 16500 nM
  TGI A-549: 4.38E−07 Molar
SK-MEL-28
  GI50: 52.6 nM
  CC50: 12500 nM
  TGI MEL-28: 3.51E−07 Molar
LNCaP
  GI50: 2130 nM
  CC50: 16500 nM
  TGI LN-caP: 1.65E−05 Molar
PANC-1
  GI50: 25.4 nM
  CC50: 1610 nM
  TGI PANC-1: 2.50E−07 Molar
K-562; K-562
  GI50: 43.3 nM
  CC50: 1200 nM
  TGI K-562: 2.47E−07 Molar
LoVo
  GI50: 57 nM
  CC50: 1290 nM
  TGI LOVO: 2.26E−07 Molar
SK-BR-3
  GI50: 153 nM
  CC50: 16500 nM
  TGI SK-BR-3: 1.61E−06 Molar
DU-145
  GI50: 45.8 nM
  CC50: 16500 nM
  TGI DU-145: 9.65E−08 Molar
HT-29
  GI50: 2650 nM
  CC50: 16500 nM
  TGI HT-29: 1.06E−05 Molar
LoVo-Dox
  GI50: 2260 nM
  CC50: 16500 nM
  TGI LOVO-DOX: 8.98E−07 Molar
